Values of other authors in patent publication US20250161269A1 (Celmatix Inc., priority 2022, published 2025).
Like-named read-outs stand apart in the source and are kept apart here.

Assays:
MT1 [1] = biological target: T1, MT1 (Homo sapiens, UniProt P48039); settings: cited from earlier work
MT2 [2] = biological target: T2, MT2 (Homo sapiens, UniProt P49286); settings: cited from earlier work
T2 sequence (P49286 1-362): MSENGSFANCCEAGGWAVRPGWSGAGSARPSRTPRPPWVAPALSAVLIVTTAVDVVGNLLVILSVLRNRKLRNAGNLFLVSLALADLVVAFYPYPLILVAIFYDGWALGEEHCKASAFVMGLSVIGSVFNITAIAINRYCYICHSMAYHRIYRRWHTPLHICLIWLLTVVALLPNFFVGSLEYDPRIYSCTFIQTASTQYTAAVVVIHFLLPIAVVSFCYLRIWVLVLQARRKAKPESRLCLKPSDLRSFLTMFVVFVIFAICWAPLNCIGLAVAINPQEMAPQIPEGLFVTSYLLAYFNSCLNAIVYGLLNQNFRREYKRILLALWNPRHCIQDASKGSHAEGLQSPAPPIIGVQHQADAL

[3] = in vivo; cited from earlier work
serum albumin = serum albumin (Homo sapiens, UniProt P02768); settings: peripheral circulation; cited from earlier work
PCOS patients = PCOS patients or patients with metabolic disturbances; cited from earlier work
endometriosis patients = settings: cited from earlier work
endometriosis lesion = settings: animals; cited from earlier work
PCOS animal models = settings: cited from earlier work
[4] = test system: chemotherapy tissue damage animal models; settings: cited from earlier work
[5] = test system: macrophages (RAW264.7 or primary cells); settings: macrophages treated with LPS; cited from earlier work
5-HT2B receptor = 5-HT2B receptor (Homo sapiens, UniProt P41595); settings: antagonist; cited from earlier work
MT1 [6] = biological target: T1, MT1; parameters: host or cells: CHO-K1 cells (as the earlier reading words it); settings: CHO-K1 cells; cited from earlier work
MT2 [7] = biological target: T2, MT2; parameters: host or cells: CHO-K1 cells (as the earlier reading words it); settings: CHO-K1 cells; cited from earlier work
MT1 [8] = biological target: T1, MT1; settings: NIH-3T3 cells; cited from earlier work

T1 sequence (P48039 whole entry): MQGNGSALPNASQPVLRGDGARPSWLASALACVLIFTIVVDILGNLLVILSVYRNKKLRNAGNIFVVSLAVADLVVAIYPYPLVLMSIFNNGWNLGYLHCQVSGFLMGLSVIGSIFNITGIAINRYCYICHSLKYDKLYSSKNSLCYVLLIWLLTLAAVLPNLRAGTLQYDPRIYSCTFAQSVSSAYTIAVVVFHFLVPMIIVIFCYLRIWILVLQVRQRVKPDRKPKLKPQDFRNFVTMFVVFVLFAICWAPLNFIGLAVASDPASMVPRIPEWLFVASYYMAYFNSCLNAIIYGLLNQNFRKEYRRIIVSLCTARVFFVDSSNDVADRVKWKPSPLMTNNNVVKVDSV
Chain of 5-HT2B receptor (P41595 whole entry): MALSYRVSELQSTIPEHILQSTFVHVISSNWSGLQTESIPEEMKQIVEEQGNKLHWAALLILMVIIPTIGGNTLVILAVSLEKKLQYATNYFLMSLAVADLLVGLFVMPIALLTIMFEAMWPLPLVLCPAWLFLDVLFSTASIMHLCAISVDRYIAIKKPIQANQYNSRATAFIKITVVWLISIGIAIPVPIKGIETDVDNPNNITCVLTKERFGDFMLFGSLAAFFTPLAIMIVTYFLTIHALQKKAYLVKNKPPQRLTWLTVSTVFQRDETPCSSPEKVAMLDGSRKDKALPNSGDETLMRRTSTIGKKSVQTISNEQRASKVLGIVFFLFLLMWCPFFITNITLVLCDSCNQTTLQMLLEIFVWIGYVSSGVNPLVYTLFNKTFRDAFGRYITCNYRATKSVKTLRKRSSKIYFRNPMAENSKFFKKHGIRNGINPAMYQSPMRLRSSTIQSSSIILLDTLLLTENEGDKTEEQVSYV
Chain of serum albumin (P02768 25-609): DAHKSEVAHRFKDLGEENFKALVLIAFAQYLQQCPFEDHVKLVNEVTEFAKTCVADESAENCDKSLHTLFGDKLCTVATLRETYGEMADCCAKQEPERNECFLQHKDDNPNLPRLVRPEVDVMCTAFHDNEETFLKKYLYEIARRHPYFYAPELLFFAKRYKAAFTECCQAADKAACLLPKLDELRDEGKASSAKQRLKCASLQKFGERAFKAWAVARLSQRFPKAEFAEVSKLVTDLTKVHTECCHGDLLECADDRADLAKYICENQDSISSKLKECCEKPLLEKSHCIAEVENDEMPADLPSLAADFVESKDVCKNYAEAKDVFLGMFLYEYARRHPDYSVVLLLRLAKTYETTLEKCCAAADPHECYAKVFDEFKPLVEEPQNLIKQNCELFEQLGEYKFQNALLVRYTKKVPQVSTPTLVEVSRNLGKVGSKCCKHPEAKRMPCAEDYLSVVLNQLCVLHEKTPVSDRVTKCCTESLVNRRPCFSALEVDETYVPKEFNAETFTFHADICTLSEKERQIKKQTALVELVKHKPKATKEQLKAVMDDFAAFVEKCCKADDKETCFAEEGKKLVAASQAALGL

In the case of `COc1ccc2[nH]cc(CCNC(=O)c3cc(=O)cco3)c2c1` [Piromelatine], the Ki (MT1 [1]) is listed as 0.022 nM and the Ki (MT2 [2]) is listed as 0.034 nM.
In the case of `COc1ccc2[nH]cc(CCNC(C)=O)c2c1` [Melatonin, N-acetyl-5-methoxytryptamine], the “half-life inside the body” value [3] is listed as 20 to 40 min, the “bound to serum albumin” value (serum albumin) is listed as “approximately 70%” and the “effect on hyperandrogenism, inflammation, ART outcome, and metabolic function” value (PCOS patients) is listed as “beneficial effect”. The “effect on pelvic pain” value (endometriosis patients) was “beneficial effect”, the endometriosis lesion regression (endometriosis lesion) was “promotes endometriosis lesion regression” and the “metabolic and reproductive traits” value (PCOS animal models) was “improve metabolic and reproductive traits”. The “metabolic and reproductive traits” value [4] was “mitigate and protect metabolic and reproductive traits” and the “LPS-induced expression of pro-inflammatory molecules (e.g. TNFα, IL1B, IL6, IL8)” value [5] was “reduces their LPS-induced expression”.
In the case of `COc1ccc2cccc(CCNC(C)=O)c2c1` [Agomelatine], the Ki (5-HT2B receptor) is listed as 660 nM.
For `CCC(=O)NCC[C@@H]1CCc2ccc3c(c21)CCO3` [Ramelteon], the Ki (MT2 [2]) is given as 0.11 nM, the Ki (MT1 [6]) is given as 0.118 nM and the Ki (MT2 [7]) is given as 0.115 nM.
For `COc1cc2c(C(C)CNC(C)=O)c[nH]c2cc1Cl` (stereo not drawn) [TIK-301, beta-methyl-6-chloromelatonin], the Ki (MT1 [1]) is listed as 0.081 nM and the Ki (MT2 [2]) is listed as 0.042 nM.
For `CCC(=O)NC[C@@H]1C[C@H]1c1cccc2c1CCO2` [Tasimelteon], the Ki (MT1 [1]) is given as 0.3 nM, the Ki (MT1 [8]) is given as 0.304 nM and the Ki (MT1 [6]) is given as 0.35 nM. The Ki (MT2 [7]) was 0.17 nM.
